Results as given in PubChem BioAssay (NCI).
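Values below derive from 48-hour exposures of cells grown in 96-well plates, with endpoints linearly interpolated between the two concentrations bracketing the appropriate inhibition level. TGI is the concentration that stops growth completely.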

Columns and labels:
Assay in all cases: NCI tumour cell line growth inhibition, 48 h
786-0 renal = system: 786-0 renal
NCI-H226 lung = system: NCI-H226 lung
RPMI-8226 leukemia = system: RPMI-8226 leukemia
MDA-N = system: MDA-N
PC-3 prostate = system: PC-3 prostate
NCI-H522 lung = system: NCI-H522 lung
COLO 205 colon = system: COLO 205 colon
HOP-92 NSCLC = system: HOP-92 NSCLC
NCI/ADR-RES ovarian = system: NCI/ADR-RES ovarian
HCT-15 colon = system: HCT-15 colon
MCF7 breast = system: MCF7 breast
SF-539 CNS = system: SF-539 CNS
HL-60(TB) leukemia = system: HL-60(TB) leukemia
SN12C renal = system: SN12C renal
OVCAR-3 ovarian = system: OVCAR-3 ovarian
DU-145 prostate = system: DU-145 prostate
NCI-H23 lung = system: NCI-H23 lung
OVCAR-4 ovarian = system: OVCAR-4 ovarian
LOX IMVI melanoma = system: LOX IMVI melanoma
K-562 leukemia = system: K-562 leukemia
HCT-116 colon = system: HCT-116 colon
CAKI-1 renal = system: CAKI-1 renal
OVCAR-5 ovarian = system: OVCAR-5 ovarian
NCI-H460 lung = system: NCI-H460 lung
TK-10 renal = system: TK-10 renal
SNB-19 CNS = system: SNB-19 CNS
IGROV1 ovarian = system: IGROV1 ovarian
A498 renal = system: A498 renal
SK-MEL-2 melanoma = system: SK-MEL-2 melanoma
OVCAR-8 ovarian = system: OVCAR-8 ovarian
ACHN renal = system: ACHN renal
KM12 colon = system: KM12 colon
UACC-62 melanoma = system: UACC-62 melanoma
RXF 393 renal = system: RXF 393 renal
UO-31 renal = system: UO-31 renal
SF-268 CNS = system: SF-268 CNS
HT29 colon = system: HT29 colon
SR leukemia = system: SR leukemia
CCRF-CEM leukemia = system: CCRF-CEM leukemia
SW-620 colon = system: SW-620 colon
M14 melanoma = system: M14 melanoma
EKVX NSCLC = system: EKVX NSCLC
UACC-257 melanoma = system: UACC-257 melanoma
MOLT-4 leukemia = system: MOLT-4 leukemia
SK-MEL-5 melanoma = system: SK-MEL-5 melanoma
MDA-MB-435 = system: MDA-MB-435
T-47D breast = system: T-47D breast
HS 578T breast = system: HS 578T breast
A549 NSCLC = system: A549 NSCLC
SNB-75 CNS = system: SNB-75 CNS
BT-549 breast = system: BT-549 breast
MDA-MB-231 breast = system: MDA-MB-231 breast
SK-OV-3 ovarian = system: SK-OV-3 ovarian
SF-295 CNS = system: SF-295 CNS
U251 CNS = system: U251 CNS
SK-MEL-28 melanoma = system: SK-MEL-28 melanoma
MALME-3M melanoma = system: MALME-3M melanoma
HCC-2998 colon = system: HCC-2998 colon
HOP-62 NSCLC = system: HOP-62 NSCLC

CSc1ncc2c(n1)-c1ccccc1OC2NC1CC1 (configuration not stated)
TGI (786-0 renal): > 100 µM | TGI (NCI-H226 lung): > 100 µM | TGI (RPMI-8226 leukemia): 96.9 µM | TGI (MDA-N): > 100 µM | TGI (PC-3 prostate): > 100 µM | TGI (NCI-H522 lung): 82.5 µM | TGI (COLO 205 colon): > 100 µM | TGI (HOP-92 NSCLC): > 100 µM | TGI (NCI/ADR-RES ovarian): > 100 µM | TGI (HCT-15 colon): > 100 µM | TGI (MCF7 breast): > 100 µM | TGI (SF-539 CNS): > 100 µM | TGI (HL-60(TB) leukemia): 73.3 µM | TGI (SN12C renal): > 100 µM | TGI (OVCAR-3 ovarian): > 100 µM | TGI (DU-145 prostate): > 100 µM | TGI (NCI-H23 lung): > 100 µM | TGI (OVCAR-4 ovarian): > 100 µM | TGI (LOX IMVI melanoma): > 100 µM | TGI (K-562 leukemia): > 100 µM | TGI (HCT-116 colon): > 100 µM | TGI (CAKI-1 renal): 86.3 µM | TGI (OVCAR-5 ovarian): > 100 µM | TGI (NCI-H460 lung): > 100 µM | TGI (TK-10 renal): > 100 µM | TGI (SNB-19 CNS): > 100 µM | TGI (IGROV1 ovarian): > 100 µM | TGI (A498 renal): 28 µM | TGI (SK-MEL-2 melanoma): > 100 µM | TGI (OVCAR-8 ovarian): > 100 µM | TGI (ACHN renal): > 100 µM | TGI (KM12 colon): > 100 µM | TGI (UACC-62 melanoma): > 100 µM | TGI (RXF 393 renal): > 100 µM | TGI (UO-31 renal): > 100 µM | TGI (SF-268 CNS): > 100 µM | TGI (HT29 colon): > 100 µM | TGI (SR leukemia): > 100 µM | TGI (CCRF-CEM leukemia): > 100 µM | TGI (SW-620 colon): > 100 µM | TGI (M14 melanoma): > 100 µM | TGI (EKVX NSCLC): > 100 µM | TGI (UACC-257 melanoma): > 100 µM | TGI (MOLT-4 leukemia): > 100 µM | TGI (SK-MEL-5 melanoma): > 100 µM | TGI (MDA-MB-435): > 100 µM | TGI (T-47D breast): 91.7 µM | TGI (HS 578T breast): > 100 µM | TGI (A549 NSCLC): > 100 µM | TGI (SNB-75 CNS): > 100 µM | TGI (BT-549 breast): > 100 µM | TGI (MDA-MB-231 breast): > 100 µM | TGI (SK-OV-3 ovarian): > 100 µM | TGI (SF-295 CNS): > 100 µM | TGI (U251 CNS): > 100 µM

CC1=NOC(=O)/C1=C/c1ccc2c(c1)OCO2
TGI (786-0 renal): 46.6 µM | TGI (NCI-H226 lung): 49.8 µM | TGI (RPMI-8226 leukemia): 55.2 µM | TGI (MDA-N): 85.7 µM | TGI (PC-3 prostate): 48.5 µM | TGI (NCI-H522 lung): > 100 µM | TGI (COLO 205 colon): 32.4 µM | TGI (HOP-92 NSCLC): > 100 µM | TGI (SK-MEL-28 melanoma): > 100 µM | TGI (NCI/ADR-RES ovarian): > 100 µM | TGI (HCT-15 colon): 45.3 µM | TGI (MCF7 breast): > 100 µM | TGI (SF-539 CNS): 64.9 µM | TGI (SN12C renal): 59.4 µM | TGI (OVCAR-3 ovarian): 98.9 µM | TGI (DU-145 prostate): 68.6 µM | TGI (NCI-H23 lung): > 100 µM | TGI (OVCAR-4 ovarian): > 100 µM | TGI (MALME-3M melanoma): > 100 µM | TGI (LOX IMVI melanoma): 36.1 µM | TGI (K-562 leukemia): > 100 µM | TGI (HCT-116 colon): > 100 µM | TGI (CAKI-1 renal): 36.4 µM | TGI (OVCAR-5 ovarian): > 100 µM | TGI (HCC-2998 colon): 95.5 µM | TGI (NCI-H460 lung): > 100 µM | TGI (TK-10 renal): > 100 µM | TGI (SNB-19 CNS): 95 µM | TGI (IGROV1 ovarian): 78.5 µM | TGI (A498 renal): 62.3 µM | TGI (SK-MEL-2 melanoma): 39 µM | TGI (OVCAR-8 ovarian): 86.3 µM | TGI (ACHN renal): 38.2 µM | TGI (KM12 colon): 36.6 µM | TGI (UACC-62 melanoma): 43.5 µM | TGI (RXF 393 renal): 30.7 µM | TGI (UO-31 renal): 38.9 µM | TGI (SF-268 CNS): > 100 µM | TGI (HT29 colon): 57.3 µM | TGI (SR leukemia): 52.5 µM | TGI (CCRF-CEM leukemia): 67.5 µM | TGI (SW-620 colon): 60.9 µM | TGI (M14 melanoma): > 100 µM | TGI (EKVX NSCLC): > 100 µM | TGI (UACC-257 melanoma): > 100 µM | TGI (SK-MEL-5 melanoma): > 100 µM | TGI (MDA-MB-435): 56.6 µM | TGI (T-47D breast): > 100 µM | TGI (HS 578T breast): > 100 µM | TGI (A549 NSCLC): > 100 µM | TGI (SNB-75 CNS): 57.5 µM | TGI (BT-549 breast): 56.8 µM | TGI (MDA-MB-231 breast): 53.9 µM | TGI (HOP-62 NSCLC): 40.9 µM | TGI (SK-OV-3 ovarian): > 100 µM | TGI (SF-295 CNS): 69.6 µM | TGI (U251 CNS): 38 µM
